Measured values taken from article doi:10.1101/2023.06.20.545697v1 (biorxiv, 2023).
Values after ≈ are worked out from the molar mass of the structure shown.

How the values were obtained:
[1] = system: Mycobacterium tuberculosis S7; test: microbe, parasite or virus in culture; conditions: S7, 120 h, read-out: MIC99 (S7) µM
[2] = system: Mycobacterium tuberculosis S6; test: microbe, parasite or virus in culture; conditions: S6, 120 h, read-out: MIC99 (S6) µM

Structure (SMILES) | MIC99 [1] | MIC99 [2]
NCCSc1ncn[nH]1 [SF3] | 250 µM (≈ 36.1 µg/mL) | –
CC(C)C(N)c1ncnn1C (stereo not shown) [SF2] | 125 µM (≈ 19.3 µg/mL) | 125 µM (≈ 19.3 µg/mL)
CC(N)c1ncnn1C (stereo not shown) [SF1] | 250 µM (≈ 31.5 µg/mL) | –
